Measurements taken from patent US7754856B2, “Human sodium-dependent bile acid transporter proteins” (Takeda Pharmaceutical Company Limited, priority 2002, dated 2010).

Target: T1, human TCH230 (Homo sapiens, UniProt Q3KNW5)
T1 construct: expressed in transfected cells
T1 sequence (Q3KNW5 1-377): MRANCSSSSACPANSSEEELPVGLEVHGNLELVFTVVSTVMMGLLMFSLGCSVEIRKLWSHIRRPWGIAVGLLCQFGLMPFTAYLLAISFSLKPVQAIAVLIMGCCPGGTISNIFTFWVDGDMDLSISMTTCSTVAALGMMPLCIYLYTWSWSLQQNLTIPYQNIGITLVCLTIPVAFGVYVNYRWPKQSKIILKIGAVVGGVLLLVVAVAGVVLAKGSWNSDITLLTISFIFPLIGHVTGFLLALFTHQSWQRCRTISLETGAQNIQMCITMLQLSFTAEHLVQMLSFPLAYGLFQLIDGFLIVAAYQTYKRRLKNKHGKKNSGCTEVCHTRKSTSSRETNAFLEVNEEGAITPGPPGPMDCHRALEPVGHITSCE
Assay: Incorporation of labeled steroid sulfates into human TCH230-expressing CHO cell strain
Assay type: cell-based
Conditions: for incorporation into human TCH230 expressing CHO cells (radioactivity): CHO clone No. 19-6, in the presence of 140 mM NaCl (NaCl buffer vs NMDG buffer, vs Mock cells), 37° C., 1 hour, values only in FIG. 17/18; for substrate of the novel sodium-dependent bile acid transporter protein: summary statement in disclosure
Protocol: Incorporation of [6,7-^3H(N)]-estrone sulfate and [1,2,6,7-^3H(N)]-dehydroepiandrosterone sulfate (hereinafter also referred to as [1,2,6,7-^3H(N)]-DHEA-S) into the human TCH230 (SEQ ID NO:1)-expressing CHO cell strain clone No. 19-6 obtained in Example 19 was measured.
The human TCH230 (SEQ ID NO:1) expressing CHO cell strain clone No. 19-6 was inoculated at a density of 4×10^4 cells/well in a 96 well plate, and cultured at 37° C. for 24 hours in MEMα medium (Invitrogen, Inc.) containing 5 mM sodium butyrate. The medium was removed, and the cells were washed 3 times with 150 μL NMDG buffer (140 mM N-methyl-D(−)-glucamine, 5.4 mM KCl, 0.34 mM Na2HPO4, 0.44 mM KH2PO4, 1.26 mM CaCl2, 0.41 mM MgSO4, 0.49 mM MgCl2, 5.55 mM glucose, pH 7.4-7.6), and incubated in 150 μL NMDG buffer at 37° C. for 1 hour. The buffer was replaced with 90 μL NaCl buffer (140 mM NaCl, 5.4 mM KCl, 0.34 mM Na2HPO4, 0.44 mM KH2PO4, 1.26 mM CaCl2, 0.41 mM MgSO4, 0.49 mM MgCl2, 5.55 mM glucose, pH 7.4-7.6) or 90 μL NMDG buffer, followed by adding 10 μL of 2.5 μM estrone sulfate, ammonium salt, [6,7-^3H(N)]— or 1.37 μM dehydroepiandrosterone sulfate, sodium salt, [1,2,6,7-^3H(N)]— (all of which are available from Perkin-Elmer Life Science). The cells were incubated at 37° C. for 1 hour, and the buffer was removed, then washed 3 times with 200 μL PBS (Takara Bio) and lysed with 10 μL of 0.1N NaOH. 100 μL SuperMix scintillator (Perkin-Elmer Life Science) was added thereto and stirred, and the amount of [6,7-^3H(N)]-estrone sulfate or [1,2,6,7-^3H(N)]-DHEA-S incorporated into the cells was measured in terms of radioactivity. This measurement was carried out with 1450 MICROBETA PLUS LIQUID SCINTILLATION COUNTER (Perkin-Elmer Life Science). CHO dhfr− cells into which vector pcDNA3.1(+) had been introduced (also referred to hereinafter as Mock) was also subjected to the same procedure and measured for radioactivity.

Substance | incorporation into human TCH230 expressing CHO cells (radioactivity) | substrate of the novel sodium-dependent bile acid transporter protein
[6,7-^3H(N)]-estrone sulfate | incorporate | substrate
[1,2,6,7-^3H(N)]-dehydroepiandrosterone sulfate [[1,2,6,7-^3H(N)]-DHEA-S] | incorporate | substrate
